From patent US9944630B1, “Dithiolane carbonate monomers and polymers thereof” (The Board of Trustees of the Leland Stanford Junior …, priority 2014, dated 2018)

Assay: Loading of curcumin to polymeric micelles, UV-vis spectroscopy
Type: physicochemical
Experimental: The solution was added dropwise to 3 mL deionized water under stirring at room temperature. The solution was stirred for another 30 min and then dialyzed against deionized water for 24 h (MW cutoff=3500). The solution inside dialysis tubing was collected.

effective concentration of curcumin dispersed in micelle solution (copolymer 1 micelle solution): 187 µg/mL
Structure (SMILES): COc1cc(/C=C/C(=O)CC(=O)/C=C/c2ccc(O)c(OC)c2)ccc1O [curcumin, Curcumin]
protection from hydrolysis (in hydrophobic micellar cores): effectively protect curcumin from hydrolysis
